Bounds are passed on as bounds.

A word on the IC50: it is the concentration needed to halve the response being measured. As a reminder, the EC50 is the concentration at which the effect is half-maximal. A high value points to a need for much substance.

Series [1] deals with Human immunodeficiency virus 1. The series is described as follows: Antiviral activity against HIV1 3B coinfected with HTLV in human PBMC assessed as inhibition of viral p24 antigen production after 7 days by ELISA. Type of series: functional, organism-based. The note with it: Human immunodeficiency virus 1, 3B, 168 h.
A short description of series [2]: Selectivity index, ratio of CC50 for human PBMC to IC50 for HIV1 3B. Type of series: functional.
Series [3] is described as follows: Antiprion activity against […] RML PrPSc infected in mouse N2A cells after 6 days by ELISA. Type of series: cell-based. The note with it: 144 h.
Series [4] in a line: Drug uptake in po dosed mouse brain measured after 3 days. The format is ADME, organism-based. The note with it: read-out: Drug uptake.
Series [5] is described as follows: Cytotoxicity against human Hep3B cells assessed as growth inhibition after 48 hrs by MTT assay. The format is functional, cell-based, Hep 3B2.
Series [6] has as its target High affinity nerve growth factor receptor (Homo sapiens, UniProt P04629). The series is described as follows: Inhibition of human recombinant N-terminal His6-tagged TRKA cytoplasmic domain (residues 440).

High affinity nerve growth factor receptor, sequence (P04629 whole entry, the tested form may be a part): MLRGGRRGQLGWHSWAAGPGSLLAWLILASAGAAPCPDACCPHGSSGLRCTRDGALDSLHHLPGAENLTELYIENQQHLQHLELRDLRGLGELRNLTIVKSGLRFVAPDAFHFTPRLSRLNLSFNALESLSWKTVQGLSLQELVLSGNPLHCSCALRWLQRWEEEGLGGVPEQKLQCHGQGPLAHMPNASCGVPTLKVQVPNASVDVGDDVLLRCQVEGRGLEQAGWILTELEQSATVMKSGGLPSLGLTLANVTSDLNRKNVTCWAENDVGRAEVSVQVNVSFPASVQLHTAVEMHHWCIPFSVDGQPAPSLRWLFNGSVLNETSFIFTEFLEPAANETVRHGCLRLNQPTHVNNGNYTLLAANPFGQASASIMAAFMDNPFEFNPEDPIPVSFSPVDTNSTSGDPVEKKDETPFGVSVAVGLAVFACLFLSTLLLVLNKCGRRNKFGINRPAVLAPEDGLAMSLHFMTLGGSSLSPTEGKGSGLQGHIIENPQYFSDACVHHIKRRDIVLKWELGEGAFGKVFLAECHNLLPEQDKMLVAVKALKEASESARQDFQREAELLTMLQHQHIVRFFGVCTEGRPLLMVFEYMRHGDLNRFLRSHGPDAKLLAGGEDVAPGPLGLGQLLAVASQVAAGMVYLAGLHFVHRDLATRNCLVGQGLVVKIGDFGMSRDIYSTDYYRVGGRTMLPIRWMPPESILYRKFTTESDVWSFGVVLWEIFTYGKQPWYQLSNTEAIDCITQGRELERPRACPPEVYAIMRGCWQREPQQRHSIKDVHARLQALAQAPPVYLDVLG

Turning to `S=C(NCCOc1ccccc1)Nc1nccs1`, the IC50 in series [1] was under 1 nM. Also, in series [2], the “Ratio CC50/IC50” value was over 100000.

For `Cc1ccc(Nc2nc(-c3cc(-c4ccccc4)no3)cs2)nc1`, in series [3], the response was half-maximal at 940 nM (EC50). Moreover, the concentration at 72 h in series [4] was 25 µM.

Regarding `O=C(CCc1ccco1)Nc1nc(-c2ccccc2)cs1`, the IC50 stood at 40 nM in series [5] and 13 nM in series [6].

Turning to `S=C(NCc1ccco1)Nc1nccs1`, the IC50 in series [1] was under 1 nM. Besides, in series [2], the “Ratio CC50/IC50” value was over 100000.

The record behind these values is ChEMBL document CHEMBL3763068, “Recent developments of 2-aminothiazoles in medicinal chemistry” (Eur J Med Chem, 2016).
